Here are results for eight compounds from patent US4966889A, “Treatment of inflammatory articular diseases” (Industria Farmaceutica Serono SpA, priority 1986, dated 1990).

Data set [1] relates to patients affected by polyarticular RA. The data set is described as follows: Evaluation of efficacy of therapies in course prior to treatment. Set-up: key to Efficacy of present therapy: Nil; Scarce; Good; Excellent. Type of data set: in vivo, human. The conditions noted are these: single cases. The text has this: (§1) With reference to each of the clinical cases taken into consideration, supplied below are the particulars relevant to diagnosis, evaluation of efficacy of therapies in course prior to treatment (Nil, Scarce, Good, Excellent), and finally the clinical observations after treatment with Somatostatin (SS) or with Placebo (PL).

The subject of data set [2] is patients affected by polyarticular RA (knee joint). The experiment in a line: Double-blind trial versus placebo: clinical observations and side effects. Type of data set: in vivo, human. The conditions noted are these: at the moment of administration or in the following days; 750 micrograms into knee joint. As to the method:
Clinical efficacy of Somatostatin was verified by means of a double-blind trial versus placebo.
17 patients affected by polyarticular RA were selected for the trial. Each patient was informed about the experimental nature of the treatment. The articular site chosen for the study was the knee.
In accordance with the double-blind procedure (Somatostatin versus placebo), 10 patients were treated with Somatostatin ("STILAMIN", 750 micrograms) injected inside the knee joint.
Clinical observations were carried out at time 0, each 10 minutes of the first hour, than at hourly intervals for 3 hours. A further evaluation was made after one week; during the period between the treatment and the evaluation on the seventh day, the patients filled out a table for selfevaluation. Parameters chosen were Ritchie's Index and Huskisson's Scale of Pain, evaluation of pain being made when walking, upon flexion and supine.
as §1

The mark [3] stands for this setting: Piroxicam 20 mg together with 6-alpha-methylprednisolone (8 mg or 4 mg).
The mark [4] stands for this setting: single drug in course prior to treatment.

Molecules are shown by their SMILES. Entries after “also recorded” stand apart in the source; their conditions may differ.

With `C[C@H]1C[C@@H]2[C@H]([C@@H](O)C[C@@]3(C)[C@H]2CC[C@]3(O)C(=O)CO)[C@@]2(C)C=CC(=O)C=C12` [6-alpha-methylprednisolone], the “Efficacy of present therapy” value in data set [1] (setting [3]) and in data set [1] (setting [4]) was “Scarce” throughout.

For `O=C(O)Cc1ccccc1Nc1c(Cl)cccc1Cl` [Diclofenac], the “Efficacy of present therapy” value in data set [1] (setting [4]) was “Scarce”.

For `CCN(CCO)CCCC(C)Nc1ccnc2cc(Cl)ccc12` (centres unmarked) [Hydroxychloroquine], in data set [1] (before the trial), the “results of basic therapy (case history)” value is “scarce results; also recorded: Disease still in acute phase”.

Consider `CC(C(=O)O)c1cccc(C(=O)c2ccccc2)c1` (centres unmarked) [Ketoprofene], for which the “Efficacy of present therapy” value in data set [1] (setting [4]) is listed as “Nil”.

Consider `COc1ccc2cc([C@H](C)C(=O)O)ccc2c1` [Naproxen], for which the “Efficacy of present therapy” value was “Good” in data set [1] (setting [4]); “Good and Scarce” in data set [1] (single drug in course prior to treatment, listed as Naproxene).

On to `CN1C(C(=O)Nc2ccccn2)=C(O)c2ccccc2S1(=O)=O` [Piroxicam], for which the “Efficacy of present therapy” value in data set [1] (setting [3]) and in data set [1] (setting [4]) was “Scarce” in each case.

As to `C[C@H](N)C(=O)NCC(=O)N[C@H]1CSSC[C@@H](C(=O)O)NC(=O)[C@H](CO)NC(=O)[C@H]([C@@H](C)O)NC(=O)[C@H](Cc2ccccc2)NC(=O)[C@H]([C@@H](C)O)NC(=O)[C@H](CCCCN)NC(=O)[C@H](Cc2c[nH]c3ccccc23)NC(=O)[C@H](Cc2ccccc2)NC(=O)[C@H](Cc2ccccc2)NC(=O)[C@H](CC(N)=O)NC(=O)[C@H](CCCCN)NC1=O` [Somatostatin], in data set [2], the clinical side effects entry was “No verifiable clinical side effects”.

With `CC(C(=O)O)c1ccc(C(=O)c2ccccc2)s1` (centres unmarked) [Thiaprophenic Acid], the “Efficacy of present therapy” value in data set [1] (setting [4]) is “Nil and Scarce”.
